Broadly, the IC50 is the concentration that gives 50% inhibition. Broadly, the solubility is how much of the substance goes into solution per volume.

Structures are written as SMILES. Where two headings read alike, the source gives them in different places. Bounds are passed on as bounds.

Consider 2 compounds from article PMC9467586, “Development of novel 9-O-substituted-13-octylberberine derivatives as potential anti-hepatocellular carcinoma agents” (Journal of Enzyme Inhibition and Medicinal Chemistry, 2022).

The test system of data set [1] is HepG2 cells. Briefly: In vitro antiproliferative MTT assay, HepG2 cells. The data set is classed as cell-based, human. The note with it: Homo sapiens, 72 h, mean ± SD (n = 3), read-out: IC50 (antiproliferative activity against HepG2 cells). The protocol:
(§1) HepG2, Sk-Hep-1, Huh-7, Hep3B and L-02 cells were purchased from Nanjing Key Gen Biotech Co. Ltd. (Nanjing, China). The cytotoxicity of test compounds was determined using an MTT assay. Briefly, the cell lines were incubated at 37 °C in a humidified 5% CO2 incubator for 24 h in 96-microwell plates. After medium removal, 100 μL of culture medium with 0.1% DMSO containing test compounds at different concentrations was added to each well and incubated at 37 °C for another 72 h. The MTT (5 mg/mL in PBS) was added and incubated for another 4 h, the optical density was detected with a microplate reader at 490 nm. The IC50 values were calculated according to the dose-dependent curves. All the experiments were repeated in at least three independent experiments.

Data set [2] concerns Sk-Hep-1 cells. Briefly: In vitro antiproliferative MTT assay, Sk-Hep-1 cells. The data set is classed as cell-based, human. The note with it: Homo sapiens, SK-HEP1, 72 h, mean ± SD (n = 3). The protocol:
as §1
A general note: Tetrazolium assays rely on reduction of a dye to a coloured formazan, in cell work by metabolically active cells.

In data set [3] the test system is Huh-7 cells. Briefly: In vitro antiproliferative MTT assay, Huh-7 cells. The format is cell-based, human. The note with it: Homo sapiens, 72 h, mean ± SD (n = 3). How it is done:
as §1

Data set [4] has as its system Hep3B cells. Briefly: In vitro antiproliferative MTT assay, Hep3B cells. The note with it: Homo sapiens, 72 h, mean ± SD (n = 3). The data set is classed as cell-based, human. How it is done:
as §1

In data set [5] the test system is normal hepatocytes L-02. Briefly: MTT cytotoxicity assay, normal hepatocytes L-02. The data set is classed as cell-based. To be noted: Hepatocyte; normal hepatocytes L-02, MTT, 72 h, mean ± SD (n = 3). The protocol:
as §1

Data set [6] has as its system duplex DNA (F10T). Briefly: FRET-melting assay, F10T (duplex DNA model). The note with it: 2 μM compounds. The data set is classed as binding.
Data set [7] in a line: LWP coefficient (log D) measurement, shake flask. The data set is classed as physicochemical. The protocol:
Berberine, 3c and 6k of 1 mg were dissolved in three centrifugal tubes (5 ml) containing phosphate buffer (pH 7.4)-saturated 1-octanol solution (2 mL), followed by the addition of 1-octanol saturated PBS (2 mL). Each tube was vigorously mixed for 1 min and then shaken for 6 h at a speed of 1000 rpm at 37 °C. The mixtures were then centrifuged. 1 mL of 1-octanol phase and 1 mL of buffer were separately collected. Each phase was diluted to a suitable concentration and analysed by HPLC (Shimadzu DGU-20A3R) on a Shimadzu-GL WondaSil C18-WR column (λ = 254 nm) with an eluent of methanol/water (65/35, v/v, 1.0 ml/min). The log D value for each compound was calculated from the ratio of the peak areas using the following equation: Log D = log (Areaoct × x/Areabuf × y). x, y is the dilution factor.

Data set [8] is described as follows: Aqueous solubility measurement by HPLC. The data set is classed as physicochemical. To be noted: 25 °C. The protocol: Berberine, 3c and 6k (5 mg) were dissolved in 1 ml PBS (50 mM, pH 7.4) at 25 °C. The suspension was sonicated for 30 min and then centrifuged at 15000 g for 5 min. The supernatant was filtered through a PTFE filter (0.2 μm) slowly. Then 10 μL filtered solution was injected into the HPLC system (Shimadzu DGU-20A3R) on a Shimadzu-GL WondaSil C18-WR column and quantified using the standard curves made by the corresponding known concentrations of berberine, 3c and 6k. The eluent was methanol/water (65/35, v/v) at a flow rate of 1.0 ml/min with the detection wavelength at 254 nm.

Data set [9] has as its system H22 liver cancer xenograft. Nature of the data set: In vivo anti-HCC assay, H22 liver cancer xenograft mouse model. To be noted: 30 mg/kg, intravenous, once a day for 21 days, H22 mice. Further details: species or system mice. The protocol: Five-week-old male Institute of Cancer Research (ICR) mice were purchased from Shanghai SLAC Laboratory Animals Co. Ltd. Briefly, a total of 1 × 10^6 H22 cells were subcutaneously inoculated into the right flank of ICR mice according to protocols of tumour transplant research, to initiate tumour growth. After incubation for one day, mice were weighed and randomly divided into 5 groups of 8 animals. The groups were administered berberine (30 mg/kg) and 6k (15 or 30 mg/kg) in a vehicle of 10% DMF/2% Tween 80/88% saline, respectively. Vehicle and cyclophosphamide (20 mg/kg) were employed as negative and positive controls, respectively. Treatments were performed by intravenous injection once per day for a total of 21 consecutive days. Body weights and tumour volumes were measured every 2 days. The mice were sacrificed after the treatments, and the tumours were excised and weighed. The tumour volume and inhibition rate (w/w) were calculated as follows: tumour volume = L × W^2/2, where L is the length and W is the width; tumour inhibitory ratio (%) = (1-average tumour weight of treated group/average tumour weight of control group) × 100%. All procedures were performed following institutional approval in accordance with the NIH Guide for the Care and Use of Laboratory Animals.

The subject of data set [10] is human hepatoma cells including HepG2, Sk-Hep-1 and Huh-7 cells. Nature of the data set: Antiproliferative MTT assay, summary over human hepatoma cells. The format is cell-based. To be noted: read-out: IC50 values against human hepatoma cells (span over cell lines). How it is done:
as §1

Data set [11] deals with c-MYC G4 DNA (FPu18T). Nature of the data set: FRET-melting assay, FPu18T (c-MYC G4 DNA model). To be noted: 2 μM compounds.

Take `COc1ccc2cc3[n+](cc2c1OC)CCc1cc2c(cc1-3)OCO2` [Berberine]: the IC50 in data set [1], in [2], in [3], in data set [4], in data set [5] and in [10] was greater than 50 µM throughout. Moreover, the “ΔTm(B) = Tm(F10T + compound) - Tm(F10T)” value in data set [6] is 2.0 °C. In addition, the logD in [7] (1-octanol/phosphate buffer (PBS), 1-octanol/PBS pH 7.4, shake flask, 37 °C, read-out: Log D) is -0.98. For the same compound, the solubility at 30 min in data set [8] (PBS (50 mM, aqueous buffer, thermodynamic from solid), PBS (pH 7.4), HPLC, read-out: Solubility) is 1360 µg/mL. The “tumour inhibitory rate (TIR, w/w)” value in data set [9] worked out at 47.3%. The “ΔTm(A) = Tm(FPu18T + compound) - Tm(FPu18T)” value in data set [11] was 1.2 °C.
In the case of `CCCCCCCCc1c2[n+](cc3c(OC)c(OC)ccc13)CCc1cc3c(cc1-2)OCO3.[Cl-]` [Compound 3c, 9,10-Dimethoxy-13-octyl-5,6-dihydro-[1,3]dioxolo[4,5-g]isoquinolino[3,2-a]isoquinolin-7-ium chloride], the half-maximal inhibitory concentration (IC50) in data set [1] stood at 4.12 ± 0.26 µM. This compound also gave a logD in [7] (pH 7.4) of 2.41. This compound also returned a solubility at 30 min in data set [8] (pH 7.4, aqueous buffer, thermodynamic from solid) of 1120 µg/mL.
